Experimental data published in paper PMC7782499, “Progerinin, an optimized progerin-lamin A binding inhibitor, ameliorates premature senescence phenotypes of Hutchinson-Gilford progeria syndrome” (Communications Biology, 2021).
Where “and” joins values, the source holds several entries; their conditions need not be identical. Equal entries are not always repeated.

Target: T1, progerin (Homo sapiens, UniProt P02545)
T1 sequence (P02545 1-614 isoform P02545-6): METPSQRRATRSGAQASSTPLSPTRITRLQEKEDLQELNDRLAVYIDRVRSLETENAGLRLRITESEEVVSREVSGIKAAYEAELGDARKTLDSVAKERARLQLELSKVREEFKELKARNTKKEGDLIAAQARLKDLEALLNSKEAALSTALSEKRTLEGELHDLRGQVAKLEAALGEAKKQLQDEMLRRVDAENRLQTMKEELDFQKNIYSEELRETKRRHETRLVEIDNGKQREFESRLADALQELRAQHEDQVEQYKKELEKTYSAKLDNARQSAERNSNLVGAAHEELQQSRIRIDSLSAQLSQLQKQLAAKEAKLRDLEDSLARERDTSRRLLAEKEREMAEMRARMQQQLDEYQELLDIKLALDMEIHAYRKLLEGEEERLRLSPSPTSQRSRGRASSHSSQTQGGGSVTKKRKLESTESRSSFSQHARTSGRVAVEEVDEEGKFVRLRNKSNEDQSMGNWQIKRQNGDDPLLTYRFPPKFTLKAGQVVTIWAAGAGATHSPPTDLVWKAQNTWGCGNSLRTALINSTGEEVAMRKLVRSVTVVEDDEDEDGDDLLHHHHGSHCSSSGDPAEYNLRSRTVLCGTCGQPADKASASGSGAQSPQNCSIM
Experiment: Exogenous GFP-progerin expression in transfected HEK293 cells
Assay type: cell-based
Set-up: expressed in transfected cells; host or cells: HEK293 (ATCC); vector from T. Misteli (NCI)
Settings: for GFP intensity after treatment with SLC-D011, Ave: average; for GFP intensity after treatment with SLC-D011: single replicates
Method: A. In vivo pharmacokinetic (PK) analysis of JH010 (performed in rats). […] B Effect of SLC-D011 on human ERG (hERG). […] C In vivo pharmacokinetic analysis of SLD-D011. […] HEK293 cells transiently transfected with GFP-PG vectors were treated with SLC-D011 for 24 hr (n = 3 independent experiment; two-tailed Student’s t test). […] “Con” means dimethyl sulfoxide (DMSO)-treated control.
GFP tag conjugated EV (GFP-EV), lamin A (GFP-LA), lamin A-C661A (GFP-LA-C661A), progerin (GFP-PG), and progerin-C611A (GFP-PG-C611A) vectors were used. GFP-PG and GFP-LA expression vectors were kindly provided by Misteli T. (National Cancer Institute [NCI], Frederick, MD, USA). GFP-LA-C661A and GFP-PG-C611A expression vectors were created by a single point mutation in CaaX motif. The CSIM sequence of lamin A, or progerin was mutated to ASIM. jetPEI (Polyplus Transfection, NY, USA) was used for transfection of expression vectors. Vectors were mixed with 1.5 μl of jetPEI in 150 mM NaCl solution. The mixture was added to HEK293 cells. After 4 h of incubation, medium was replaced with a new medium supplemented with 10% FBS.
Protein was extracted from cells using a radioimmunoprecipitation assay (RIPA) buffer (50 mM Tris-Cl, pH 7.5, 150 mM NaCl, 1% NP-40, 0.1% SDS, and 10% sodium deoxycholate). Samples were separated by sodium dodecyl sulfate-polyacrylamide gel electrophoresis (SDS-PAGE) and transferred to polyvinylidene difluoride (PVDF) membranes. Blotted membranes were blocked with 3% skimmed milk in TBS-T buffer (20 mM Tris pH 7.6, 150 mM NaCl, and 0.05% Tween 20) for 1 h followed by incubation with specific primary antibodies. Horseradish peroxidase (HRP)-conjugated goat anti-mouse, goat anti-rabbit, and mouse anti-goat IgG antibodies (Pierce, Thermo Fisher Scientific, Inc., Rockford, IL, USA) were used as secondary antibodies. Peroxidase activity was detected by chemiluminescence using an ECL kit (Intron, Seoul, Korea) following the manufacturer’s instructions. Bands were quantified using Image J software (National Institute of Health, NIH).

In the case of `CC1(C)Oc2cc3oc(=O)ccc3cc2C[C@@H]1OC/C=C/c1ccccc1` [SLC-D011], the “GFP intensity after treatment with SLC-D011, Ave” value (“GFP intensity … Ave” for short) (10nM) is reported as 23.7595 AU, the “GFP intensity after treatment with SLC-D011” value (10nM) is reported as 22.794 AU and 22.0662 AU and 26.4183 AU and the “GFP intensity … Ave” value (50nM) is reported as 15.0559 AU. For the same compound, the “GFP intensity after treatment with SLC-D011” value (50nM) was 15.1696 AU and 15.171 AU and 14.827 AU, the “GFP intensity … Ave” value (100nM) was 3.935 AU and the “GFP intensity after treatment with SLC-D011” value (100nM) was 3.384 AU and 4.172 AU and 4.251 AU. For the same compound, the “GFP intensity … Ave” value (500nM) was 1.357 AU, the “GFP intensity after treatment with SLC-D011” value (500nM) was 1.4575 AU and 1.25 AU and 1.363 AU and the “GFP intensity … Ave” value (1μM) was 1.02 AU. The “GFP intensity after treatment with SLC-D011” value (1μM) was 0.898 AU and 1.076 AU and 1.085 AU, the “GFP intensity … Ave” value (2μM) was 0.8179 AU and the “GFP intensity after treatment with SLC-D011” value (2μM) was 0.8856 AU and 0.7639 AU and 0.8042 AU. For the same compound, the “GFP intensity … Ave” value (5μM) was 0.08935 AU, the “GFP intensity after treatment with SLC-D011” value (5μM) was 0.1141 AU and 0.03666 AU and 0.1173 AU and the “Concentration from which exogenous progerin expression is reduced” value (HEK293, GFP-PG, 24 hr) was 100 nM.
